Earlier results on one substance are cited in article PMC7172884 (Journal of Molecular Biology, 2006).

For one data set, the target named is T1, HAV 3C (Human hepatitis A virus genotype IB, UniProt P08617).
T1 sequence (P08617 1520-1738 limits assumed): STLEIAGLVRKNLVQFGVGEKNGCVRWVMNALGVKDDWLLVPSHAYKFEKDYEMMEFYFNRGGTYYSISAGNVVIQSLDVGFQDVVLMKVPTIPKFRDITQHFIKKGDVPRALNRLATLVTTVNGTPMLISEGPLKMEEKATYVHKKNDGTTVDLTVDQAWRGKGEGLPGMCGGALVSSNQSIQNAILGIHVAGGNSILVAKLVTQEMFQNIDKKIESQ
The conditions noted are these: in vitro, partial viral polyprotein (ΔP1-2A-2B) as substrate.

In the next data set the test system is HAV. The conditions noted are these: HAV-infected cells, inhibitor at 5 μM.

“N-acetyl-leucyl-alanyl-alanyl-(N,N-dimethyl)-glutamine-fluoromethylketone [inhibitor Ia]”: the half-inhibitory concentration (IC50) (usually the concentration that inhibits the measured activity by half) on HAV 3C was 41 µM. Also, the “reduction of viral yield” value in the data set on HAV was 25 fold.
